Drawing on patent publication US6943149B2, “Benzimidazolone peptidomimetics as thrombin receptor antagonists” (Ortho McNeil Pharmaceutical, Inc., priority 1999, dated 2005), this text covers IC50 for eight compounds.

Experiment [1] has as its system gel-filtered platelets (thrombin-stimulated aggregation). The experiment in a line: Thrombin-induced gel-filtered platelet aggregation assay. As to conditions: human platelets, read-out: IC50 (μM) Thr GFP Aggr. The class given is cell-based. As for the experimental part:
In Vitro Inhibition of Thrombin-Induced Gel-Filtered Platelet Aggregation Assay
The percentage of platelet aggregation is calculated as an increase in light transmission of compound-treated platelet concentrate vs. control-treated platelet concentrate. Human blood is obtained from drug free, normal donors in tubes containing 0.13M sodium citrate. Platelet rich plasma (PRP) is collected by centrifugation of whole blood at 200×g for 10 min at 25° C. The PRP (5 mL) is gel filtered through Sepharose 2B (bed volume 50 mL), and the platelet count is adjusted to 2×10^7 platelets per sample. The following constituents are added to a siliconized cuvette: concentrated platelet filtrate and Tyrode's buffer (0.14M NaCl, 0.0027M KCl, 0.012M NaHCO3, 0.76 mM Na2HPO4, 0.0055M glucose, 2 mg/mL BSA and 5.0 mM HEPES @ pH 7.4) in an amount equal to 350 μL, 50 μL of 20 mM calcium and 50 μL of the test compound. Aggregation is monitored in a BIODATA aggregometer for the 3 min following the addition of agonist (thrombin 50 μL of 1 unit/mL).

The target of experiment [2] is T1, Thrombin receptor (PAR-1) (Homo sapiens, UniProt P25116).
T1 construct: CHRF membranes (Jones, Biochim. Biophys. Acta 1992, 1136, 272) are thawed from −70° C; endogenous in cells; host or cells: CHRF cell membranes
T1 sequence (P25116 22-425): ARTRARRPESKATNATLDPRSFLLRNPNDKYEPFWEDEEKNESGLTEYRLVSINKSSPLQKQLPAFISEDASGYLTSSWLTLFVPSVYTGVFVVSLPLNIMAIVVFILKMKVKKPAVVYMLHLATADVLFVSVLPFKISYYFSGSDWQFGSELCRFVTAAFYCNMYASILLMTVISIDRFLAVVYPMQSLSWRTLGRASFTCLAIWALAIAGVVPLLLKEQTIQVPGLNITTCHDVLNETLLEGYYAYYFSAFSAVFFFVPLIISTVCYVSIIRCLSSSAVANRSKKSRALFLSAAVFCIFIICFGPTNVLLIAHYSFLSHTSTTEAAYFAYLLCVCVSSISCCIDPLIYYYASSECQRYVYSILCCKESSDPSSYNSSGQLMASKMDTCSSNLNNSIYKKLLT
The experiment in a line: Thrombin receptor (PAR-1) binding assay. As to conditions: CHRF membranes; tritiated 721-40 radioligand; read-out: IC50 (μM) Thr recptr Bdg. As for the experimental part:
In Vitro Thrombin Receptor Binding Assay
CHRF membranes (Jones, Biochim. Biophys. Acta 1992, 1136, 272) are thawed from −70° C., centrifuged at maximum speed for 5 min, washed twice with binding buffer (50 mM HEPES containing 5 mM MgCl2 and 0.1% BSA), and re-suspended in binding buffer ([…]). 100 μL of membranes are added to the 24-Wallac plates and delivered to the Tomtech apparatus. In a typical experiment, 6 μL of samples (from a 125 μg/mL intermediary plate, 20% DMSO) and 44 μL buffer are delivered to the plates (final conc. of compounds is 3.7 μg/mL, 0.6% DMSO). Similarly, 6 μL 20% DMSO and 44 μL buffer are delivered to both column 1 (NSB) and column 12 (TB). 10 μL Ser-pFPhe-Har-Leu-Har-Lys-Tyr-NH2, SEQ ID NO 1, (721-40; 500 μM in deionized water) is added to column 1. 50 μL tritiated 721-40 (specific activity 46 Ci/mmol) is added to all the wells. The plates are mixed well for 20 seconds, incubated for 30 min, and then harvested with 10 mM HEPES/138 mM NaCl using the Skatron harvester. The filters (GF/C Brandel FPXLR 296) are presoaked 3 h in 0.5% polyethylenimine in HEPES/0.1M N-acetylglucosamine) are set in saran wrap and dried for 3 min in the microwave, and placed in sample bags (Wallac 1450-432). 4.5 mL scintillation fluid (Wallac, Betaplate Scint 1205-440) is added. The bags are sealed, placed in filter cassettes (Wallac 1450-104), and analyzed on the microbeta counter.

Usually IC50 stands for the concentration that gives 50% inhibition. As to `NCCNC(=O)[C@H](Cc1ccncc1)NC(=O)[C@H](Cc1ccc(F)c(F)c1)NC(=O)Nc1ccc2c(c1)n(Cc1ccc(F)cc1)c(=O)n2CCN1CCCC1` [Compound 8], the results for the IC50 in experiment [1] and in experiment [2] were 5.8 µM and 0.5 µM, respectively.

Take `NCC[C@H](NC(=O)[C@H](Cc1ccc(F)c(F)c1)NC(=O)Nc1ccc2c(c1)n(CCN1CCCC1)c(=O)n2Cc1c(Cl)cccc1Cl)C(=O)NCc1ccccc1` [Compound 7]: the IC50 in experiment [1] is 5.5 µM; in experiment [2], 1.7 µM.

As for `NCC[C@H](NC(=O)[C@H](Cc1ccc(F)c(F)c1)NC(=O)Nc1ccc2c(c1)n(Cc1c(Cl)cccc1Cl)c(=O)n2CCN1CCCC1)C(=O)NCc1ccccc1` [Compound 1], the IC50 turned out to be 0.39 µM in experiment [1] and 1.6 µM in experiment [2].

On to `Cc1ccccc1Cn1c(=O)n(CCN(C)C)c2ccc(NC(=O)N[C@@H](Cc3ccc(F)c(F)c3)C(=O)N[C@@H](CCN)C(=O)NCc3ccccc3)cc21` [Compound 4], for which the values for the IC50 in experiment [1] and in experiment [2] were 0.23 µM and 0.7 µM, respectively.

Consider `Cc1ccccc1Cn1c(=O)n(CCN(C)C)c2cc(NC(=O)N[C@@H](Cc3ccc(F)c(F)c3)C(=O)N[C@@H](CCN)C(=O)NCc3ccccc3)ccc21` [Compound 3], for which the IC50 was found to be 7.7 µM in experiment [1] and 1.9 µM in experiment [2].

With `NCC[C@H](NC(=O)[C@H](Cc1ccc(F)c(F)c1)NC(=O)Nc1ccc2c(c1)n(Cc1ccc(F)cc1)c(=O)n2CCN1CCCC1)C(=O)NCc1ccccc1` [Compound 6], the figures for the IC50 in experiment [1] and in experiment [2] were 6 µM and 0.6 µM, respectively.

For `Cc1ccccc1Cn1c(=O)n(CCN2CCCC2)c2cc(NC(=O)N[C@@H](Cc3ccc(F)c(F)c3)C(=O)N[C@@H](CCN)C(=O)NCc3ccccc3)ccc21` [Compound 2], the IC50 in experiment [1] turned out to be 7 µM; in experiment [2] it was 3 µM.

For the compound `Cc1ccccc1Cn1c(=O)n(CCN2CCCC2)c2ccc(NC(=O)N[C@@H](Cc3ccc(F)c(F)c3)C(=O)N[C@@H](CCN)C(=O)NCc3ccccc3)cc21` [Compound 5], the IC50 was determined as 0.28 µM in experiment [1] and 0.4 µM in experiment [2].
